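Step 1: Grow cells in 96-well plates. Step 2: Expose to compound for 48 hours at 5 concentrations. Step 3: Interpolate endpoints linearly; if unreached, use highest concentration. Abbreviation: GI50, concentration required for 50% inhibition of growth.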 Calls of active or inactive are those of the source. Rule as the data show it: active = GI50 up to about 1.1 µM and inactive = higher. Where a SMILES comes first, the peptide text is derived from it. [ ]: non-standard residue; d: D form. The star is where a group is joined. Cbz = O=C(OCc1ccccc1)*; Aib = CC(C)(N)C(=O)O
Experiments:
Test in all cases: DTP human tumour cell line panel, 48 h
HT-29 = test system: HT-29
NCI-H460 = test system: NCI-H460
OVCAR-3 = test system: OVCAR-3
T47D = test system: T47D
SR = test system: SR
K562 = test system: K562
NCI/ADR-RES = test system: NCI/ADR-RES
KM12 = test system: KM12
U-251 = test system: U-251
HCC 2998 = test system: HCC 2998
Malme-3M = test system: Malme-3M
OVCAR-5 = test system: OVCAR-5
HOP-62 = test system: HOP-62
IGROV-1 = test system: IGROV-1
A498 = test system: A498
SK-MEL-5 = test system: SK-MEL-5
CCRF-CEM = test system: CCRF-CEM
A549 = test system: A549
SNB-19 = test system: SNB-19
UACC-257 = test system: UACC-257

Measured: GI50

CC(C)(NC(=O)C(C)(C)NC(=O)OCc1ccccc1)C(=O)O (Cbz-[Aib]-[Aib]-OH)
inactive: HT-29 > 100 µM | NCI-H460 > 100 µM | OVCAR-3 > 100 µM | T47D > 100 µM | SR > 100 µM | K562 > 100 µM | NCI/ADR-RES > 100 µM | KM12 > 100 µM | U-251 > 100 µM | HCC 2998 > 100 µM | Malme-3M > 100 µM | OVCAR-5 > 100 µM | HOP-62 > 100 µM | IGROV-1 > 100 µM | A498 > 100 µM | SK-MEL-5 > 100 µM | CCRF-CEM > 100 µM | A549 > 100 µM | SNB-19 > 100 µM | UACC-257 > 100 µM

CN(C)/C=N/Cc1ccc2c(c1)OCO2
inactive: HT-29 > 100 µM | NCI-H460 > 100 µM | OVCAR-3 > 100 µM | T47D > 100 µM | SR > 100 µM | K562 > 100 µM | NCI/ADR-RES > 100 µM | KM12 > 100 µM | U-251 > 100 µM | HCC 2998 > 100 µM | Malme-3M > 100 µM | OVCAR-5 > 100 µM | HOP-62 > 100 µM | IGROV-1 > 100 µM | A498 > 100 µM | SK-MEL-5 > 100 µM | CCRF-CEM > 100 µM | A549 > 100 µM | SNB-19 > 100 µM | UACC-257 > 100 µM

Cc1cc(S(=O)(=O)Nc2nnc3c(C(F)(F)F)cc(Cl)cn23)c(S)cc1Cl
inactive: HT-29 > 100 µM | NCI-H460 45.3 µM | OVCAR-3 89.5 µM | T47D 70.5 µM | SR 81.7 µM | K562 > 100 µM | NCI/ADR-RES > 100 µM | KM12 94.8 µM | U-251 46.6 µM | HCC 2998 > 100 µM | Malme-3M > 100 µM | OVCAR-5 > 100 µM | HOP-62 > 100 µM | IGROV-1 > 100 µM | A498 > 100 µM | SK-MEL-5 > 100 µM | CCRF-CEM > 100 µM | A549 > 100 µM | SNB-19 38.2 µM | UACC-257 > 100 µM

COC[C@@H](/N=C/C(C)(C)C)C(C)C
inactive: HT-29 > 100 µM | NCI-H460 > 100 µM | OVCAR-3 > 100 µM | T47D > 100 µM | SR > 100 µM | K562 > 100 µM | NCI/ADR-RES > 100 µM | KM12 > 100 µM | U-251 > 100 µM | HCC 2998 > 100 µM | Malme-3M > 100 µM | OVCAR-5 > 100 µM | HOP-62 > 100 µM | IGROV-1 > 100 µM | A498 > 100 µM | SK-MEL-5 > 100 µM | CCRF-CEM > 100 µM | A549 > 100 µM | SNB-19 > 100 µM | UACC-257 67.3 µM

COc1c2c(c(CC=C(C)C)c3oc(=O)c(-c4ccc(O)cc4)c(O)c13)OC(C)(C)C=C2 [LONCHOCARPIC ACID]
inactive: HT-29 30 µM | NCI-H460 24 µM | OVCAR-3 15.7 µM | T47D 14.3 µM | SR 18.5 µM | K562 29.5 µM | NCI/ADR-RES 28.7 µM | KM12 14.4 µM | U-251 8.26 µM | HCC 2998 20.8 µM | Malme-3M 30.8 µM | OVCAR-5 42.9 µM | HOP-62 23.4 µM | IGROV-1 18.4 µM | A498 31.8 µM | SK-MEL-5 12.8 µM | CCRF-CEM 23.7 µM | A549 19.1 µM | SNB-19 29.5 µM | UACC-257 27.7 µM

CC(=O)OCC1C(C(C)OC(C)=O)CCC2C1CCC1(C)C(OC(C)=O)CCC21 (stereo not given)
inactive: HT-29 16 µM | NCI-H460 16.9 µM | OVCAR-3 20.5 µM | T47D 24.8 µM | SR 23.7 µM | K562 11.2 µM | NCI/ADR-RES 17 µM | KM12 15.7 µM | U-251 16.6 µM | HCC 2998 18.8 µM | Malme-3M 16.9 µM | OVCAR-5 54.6 µM | HOP-62 21.5 µM | IGROV-1 20 µM | A498 19.7 µM | SK-MEL-5 16.6 µM | CCRF-CEM 19.8 µM | A549 18.9 µM | SNB-19 20.4 µM | UACC-257 16.7 µM

N=C(N)N/N=C/c1c(-c2cccc([N+](=O)[O-])c2)nc2n1CCS2
inactive: HT-29 15.7 µM | NCI-H460 22.8 µM | OVCAR-3 30.3 µM | T47D 8.02 µM | SR 12.7 µM | K562 11.2 µM | NCI/ADR-RES 77.6 µM | KM12 18.4 µM | U-251 14.9 µM | HCC 2998 19.4 µM | Malme-3M 18.9 µM | OVCAR-5 35 µM | HOP-62 22.4 µM | IGROV-1 15.6 µM | A498 17 µM | SK-MEL-5 14.8 µM | CCRF-CEM 22.2 µM | A549 18.5 µM | SNB-19 13.8 µM | UACC-257 19.1 µM

From ChEMBL document CHEMBL1201862, “PubChem BioAssay data set” (2004)
